In US20220088275A1, “HYDROGELS, METHODS OF MAKING, AND METHODS OF USE” (Convalesce Inc., priority 2019, published 2022):
Peptide text beside a SMILES is read from it.

How the values were obtained:
[1] = Hydrogel formation from laminin derived peptides; format: physicochemical; details: 1 mg peptide in 200 μL 20 mM phosphate buffer pH 7.4, NaCl 50 mM to 150 mM, 24 hours
Experimental: As an example of hydrogels based on self-aggregating peptides derived from non-amyloid proteins, laminin hydrogels were generated. Laminin was analyzed in silico to identify self-aggregating regions. After identification of such a region in the protein, its sequence was further modified to facilitate peptide self-assembly, and subsequently cross-beta sheet formation. Three peptides, L1-L3, were designed. The peptides were synthesized by a commercial vendor with 99% purity.
For forming the hydrogels, 1 mg peptide was mixed with 180 μL of 20 mM phosphate buffer, pH 7.4. The pH of this solution was raised to 10 by the gradual addition of 2N NaOH. NaCl was added to this solution in different quantities with a range from 50 mM to 150 mM final concentration. The pH of the solution was finally adjusted to 7.4 and the final volume of the solution was 200 μL. The solution was left undisturbed for 24 hours to facilitate the hydrogel formation.

in vitro = format: cell-based; details: human
Experimental: (§1) To determine the viability of cells within the hydrogels formed by L1 and L3, a Calcein-AM based toxicity assay was carried out. SHSY5Y cells were used for the toxicity assay. Cells were cultured in complete DMEM with 10% FBS, 1× Glutamax and 1% pen-strep antibiotic cocktail in a humidified incubator at 37° C. with 5% CO2. Cells cultured at 80% confluency in the culture vessel were used for the assay. SHSY5Y cells were washed with phosphate-buffered saline and treated with Accutase® to lift them of the culture vessel. Subsequently, it was neutralized with a double amount of complete media and centrifuged at 300 rpm for 5 minutes to obtain a cell pellet. Around 10,000 live cells (counted on a hemocytometer by Trypan blue exclusion) were added to 20 μL of each hydrogel and plated in a well of a 96 well polystyrene TC plate (with technical replicate=3). After 20 minutes, 100 μL complete media was added to each well. For control, a similar number of cells were added to a well without the hydrogel. 20 μL of phosphate buffer was added to each of the control wells. Cells were cultured for 24 hours before performing the Calcein-AM assay. Calcein-AM assay was carried out according to manufacturer's protocol. The viable cells were imaged with a wide-field fluorescence microscope and quantified.

SHSY5Y cells = assay: in vitro; format: cell-based; details: incubated for 24 hours; FIG. 10
Experimental: as §1

Row | Structure (SMILES) | hydrogel formation [1] | viability at 24 h (in vitro) | viability of SHSY5Y cells relative to control (in words) (SHSY5Y cells)
1 | CC(C)C[C@H](NC(=O)[C@H](Cc1ccc(O)cc1)NC(=O)[C@H](Cc1ccccc1)NC(=O)[C@H](CC(C)C)NC(=O)[C@H](CC(C)C)NC(=O)OCC1c2ccccc2-c2ccccc21)C(=O)O [L1] (HELM PEPTIDE1{[O=C(OCC1c2ccccc2-c2ccccc21)[*:2]].L.L.F.Y.L}$$$$V2.0; C-terminus assumed) | formed hydrogels | 85% | high viability
2 | CC(C)C[C@H](NC(=O)[C@H](Cc1ccc(O)cc1)NC(=O)[C@@H](NC(=O)[C@H](CC(C)C)NC(=O)[C@H](CC(C)C)NC(=O)OCC1c2ccccc2-c2ccccc21)C(C)C)C(=O)O [L3] (HELM PEPTIDE1{[O=C(OCC1c2ccccc2-c2ccccc21)[*:2]].L.L.V.Y.L}$$$$V2.0; C-terminus assumed) | formed hydrogels | 87% | high viability
